Source: patent publication US8729286B2, “Platinum compounds as treatment for cancers, and related methods, kits, and compositions” (Massachusetts Institute of Technology, priority 2012, dated 2014)
“Also recorded” adds a separate entry of the source.

Key:
A549 (human lung cancer) = assay: MTT cytotoxicity assay, A549; assay type: cell-based; conditions: continuous 72 h
Procedure: (§1) The cells were treated for a continuous 72 h period. The resulting 50% growth inhibitory concentration (IC50) values are summarized in Table 4 and graphically depicted in FIG. 5.
(§2) HeLa (human cervical cancer), A549 (human lung cancer), U2OS (osteosarcoma), MCF-7 (human breast cancer) cells were grown as adherent monolayers in growth medium consisting of Dulbecco's Modified Eagle Medium (DMEM) supplemented with 10% fetal bovine serum (FBS) and 1% penicillin/streptomycin. The cultures were grown in 25 cm^2 flasks in an incubator at 37° C. with a humidified atmosphere composed of 5% CO2.
(§3) Trypsinized cells were seeded into a 96-well plate at a cell density of 2000 cells/well in 200 μL of growth medium and incubated for 24 h. The medium was then removed and 200 μL new growth medium containing various concentrations of the platinum complexes was added. After 72 h, the medium was removed, 200 μL of a 0.8 mg/mL solution of MTT in DMEM was added, and the plate was incubated further for 4 h. The DMEM/MTT mixture was aspirated and 200 μL of DMSO with 10% pH 10.5 glycine buffer was added to dissolve the resulting purple formazan crystals. The absorbance of the plates was read at 555 nm. Absorbance values were normalized to the platinum-free control wells and plotted as [Pt] versus % viability. IC50 values were interpolated from the resulting curves. The reported IC50 values are the averages from at least three independent experiments, which each consisted of six replicates per concentration level.

[1] = Solution stability in pH 7.4 PBS at 37° C. by NMR spectroscopy; assay type: physicochemical; conditions: for stability in pH 7.4 PBS (1H NMR spectra): up to 25 days; for half-life of decomposition in pH 7.4 PBS: NMR, first-order fit
Procedure: (§4) The stabilities of 1-5 in water and pH 7.4 phosphate buffered saline (PBS) at 37° C. were determined by NMR spectroscopy. […] Over the course of this reaction, the pH changed from 7.5 to 6.3. For 4, the rate of decomposition was quicker. […] The pH of this solution remained at 7.5 for the duration of the experiment.
In pH 7.4 PBS, the rates of decomposition increased. The half-lives of 2 and 4 in this medium were 3.4 and 1.8 days, respectively. For 4, the final product was the same as that observed in the aquation in non-buffered water characterized by a ^19F NMR chemical shift at −76.6 ppm. […] Although the major final product was the same as that observed for the aquation in pure water (^1H δ=2.22 ppm), two other minor products were observed by ^1H NMR spectroscopy with CH3 proton resonances at 1.91 and 1.56 ppm.
(§5) The platinum complexes were dissolved in water or pH 7.4 PBS containing 10% D2O to a typical concentration of 1 mM. The solutions were transferred to NMR tubes and incubated in a 37° C. water bath. ^1H and ^19F NMR spectra were obtained at various type points during the incubation. A small amount of 1,4-dioxane (δ=3.75 ppm) was included in the samples as an internal standard for referencing the ^1H NMR spectra and a sealed capillary containing aqueous KF (δ=−120.46 ppm) was used for referencing ^19F NMR spectra. The methyl group of 2 in the ^1H NMR spectra was integrated relative to the 1,4-dioxane reference at different time points and used for kinetic analyses. The trifluoromethyl group of 4 in the ^19F NMR spectra was integrated relative to the KF standard at different time points and used for kinetic analyses. Under the assumption of first-order kinetics, approximate half-lives were determined by fitting a line to a plot of ln [Pt] versus time and using the integrated first-order rate law, ln [Pt]=−kt+[Pt]o and the relationship, t1/2=ln 2/k, where [Pt]c, is the starting concentration of complex, k is the pseudo first-order rate constant, t is time, and t1/2 is the half-life. Water suppression for ^1H NMR spectra was accomplished with presaturation. The pH of the solutions was measured at the beginning and end of the desired incubation time using a DG-111-SG glass electrode calibrated with standard buffers.

[2] = system: MCF-7 (human breast cancer); assay: MTT cytotoxicity assay, MCF-7; assay type: cell-based; conditions: continuous 72 h
Procedure: as §1, §2, §3

[3] = Solution stability in water at 37° C. by NMR spectroscopy; assay type: physicochemical; conditions: for stability in water (1H NMR spectra): up to 25 days; for half-life of decomposition in water: NMR, first-order fit
Procedure: as §4, §5

[4] = system: nuclear DNA of HeLa cells; assay: Intracellular DNA platination in HeLa cells by GFAAS; assay type: cell-based, human; conditions: 100 μM for 4 h, then 16 h platinum-free medium
Procedure: Because platinum-based drugs exert their cytotoxic effects by the formation of DNA cross-links, the extent to which 1-5 bind to intracellular DNA was measured. Cells were treated with 100 μM of the platinum complexes for 4 h and then incubated for an additional 16 h in platinum-free growth medium. The nuclear DNA was isolated, and the quantity of bound platinum was measured by GFAAS.
Five million HeLa cells were seeded in a 100 mm Petri dish containing 9 mL of growth medium. On the following day, the cells were treated with the platinum complex at 100 μM concentration for 4 h. The growth medium was then replaced with platinum-free medium, and the cells were incubated for an additional 16 h. Cells, both floating and attached, were collected and combined. Trypsin (2 mL) was used to detach the cells. The combined cells were centrifuged for 5 min at 4° C., and the resulting cell pellet was washed twice with 3 mL of ice-cold PBS. DNAzol (1 mL, genomic DNA isolation reagent, MRC), containing 100 μg/mL RNase A, was used to lyse the cell pellet. DNA was precipitated with 0.5 mL of absolute ethanol, washed 2 times with 75% ethanol (0.75 mL), and redissolved in 200 μL of 8 mM NaOH. The DNA concentration was determined by UV-visible spectroscopy, and platinum was quantified by GFAAS. The reported values are the average of at least three independent experiments with the error reported as the standard deviation.

[5] = system: HeLa (human cervical cancer); assay: MTT cytotoxicity assay, HeLa; assay type: cell-based; conditions: continuous 72 h
Procedure: as §1, §2, §3

HeLa cells = assay: Cellular uptake in HeLa cells by GFAAS; assay type: cell-based, human; conditions: 10 μM, 4 h exposure
Procedure: The cellular uptake scales with the lipophilicity of the compound in an exponential fashion (FIG. 6). The most lipophilic complex, 5, is taken up to the largest extent (520±80 ng Pt/10^6 cells), whereas the least lipophilic complex is taken up to the least extent (6±2 ng Pt/10^6 cells).
The total platinum uptake per cell was determined using slight modifications of a previously described protocol. In two 6-well plates, 3×10^5 cells per well were seeded in 3 wells with 2.5 mL of growth medium. In one of the plates, the additional 3 wells were filled with 2.5 mL of growth medium to act as blanks for non-specific platinum adsorption on the surface of the well. After incubating for 48 h, each well in the plate containing both cells and cell-free medium was treated with 0.278 mL of a 100-μM solution of the desired compound to give an exposure concentration of 10 μM. The cells and cell-free blanks were incubated with the Pt complex for 4 h. Meanwhile, the cells in the other plate were counted with trypan blue after detachment with trypsin in order to obtain the number of cells per well. After the 4 h incubation period, the growth medium was aspirated and all six wells were washed twice with 3 mL of pH 7.4 PBS and then treated with exactly 0.5 mL of hot (≈90° C.) concentrated nitric acid for 2 h. This nitric acid was analyzed by GFAAS to determine the total Pt content per well. The amount of Pt per cell was calculated by subtracting the average amount of Pt found in the blank wells from the average amount of Pt found in the cell-containing wells and normalizing to the average number of cells per well.

[6] = system: U2OS (human osteosarcoma); assay: MTT cytotoxicity assay, U2OS; assay type: cell-based; conditions: continuous 72 h
Procedure: as §1, §2, §3

Solubility observations = assay type: physicochemical; conditions: for solubility in water: water (cold water wash)
[7] = system: central nervous system (CNS) cancer cell lines; assay: NCI-60 tumor cell panel screen, CNS cancer cell lines; assay type: cell-based; conditions: 10 μM single dose, 48 h, SRB assay
Procedure: (§6) Compound 4 was submitted to the NCI in July 2011 for single-dose testing in the NCI-60 tumor cell screen. These tests were carried out by the NCI using their established protocols.

[8] = system: HeLa, A549, U2OS, and MCF-7 cell lines; assay: MTT cytotoxicity assay, summary over the four cell lines; assay type: cell-based, human; conditions: 72 h, mean of HeLa, read-out: average IC50 value in the four cell lines tested
Procedure: as §1, §2
as §3, with “The reported IC50 values are the averages from at least three independent experiments, which each consisted of six replicates per concentration level.” left out

[9] = system: NCI-60 tumor cell panel (60 cell lines); assay: NCI-60 tumor cell panel screen, single dose; assay type: cell-based; conditions: 10 μM single dose, 48 h, SRB assay, relative to complex-free control
Procedure: as §6

[10] = up 60 days; cited from earlier work

Row | SMILES | IC50 (A549 (human lung cancer)) | stability in pH 7.4 PBS (1H NMR spectra) [1] | IC50 [2] | stability in water (1H NMR spectra) [3] | Pt/DNA [4] | IC50 [5] | HeLa Cellular Uptake (HeLa cells) | IC50 [6] | half-life of decomposition in pH 7.4 PBS [1] | half-life of decomposition in water [3] | DNA platination [4] | solubility in aqueous and organic solvent (Solubility observations; aqueous and organic solvent) | solubility in water (Solubility observations) | average cell growth in CNS cancer cell lines [7] | IC50 [8] | average cell growth percentage of the 60 cell lines [9] | decomposition in water [10]
1 | CC1=CC(C)=[O+][Pt-2]([NH3+])([NH3+])[O]1.CC1=CC(C)=[O+][Pt-2]([NH3+])([NH3+])[O]1.O=S(=O)([O-])[O-] (stereo not shown) [Compound 1, [Pt(acac)(NH3)2](SO4)0.5] | 28 ± 9 µM | no changes; also recorded: no sign of decomposition | 76 ± 2 µM | no changes; also recorded: no sign of decomposition | 0.063 ± 0.012 pmol/µg | 32 ± 5 µM | 6 ± 2 ng Pt/10^6 cells | 24 ± 2 µM | – | – | – | – | – | – | – | – | –
2 | CC1=CC(C(F)(F)F)=[O+][Pt-2]([NH3+])([NH3+])[O]1.CC1=CC(C(F)(F)F)=[O+][Pt-2]([NH3+])([NH3+])[O]1.O=S(=O)([O-])[O-] (stereo not shown) [Compound 2, [Pt(tfac)(NH3)2](SO4)0.5] | 2.2 ± 0.6 µM | – | 15 µM | – | 0.30 ± 0.07 pmol/µg | 2.9 ± 0.7 µM | 29 ± 9 ng Pt/10^6 cells | 4.1 ± 0.8 µM | 3.4 days | 58 days | ≈ 0.3 pmol Pt/μg DNA | low solubility | – | – | – | – | –
3 | CC1=CC(c2ccccc2)=[O+][Pt-2]([NH3+])([NH3+])[O]1.O=[N+]([O-])[O-] (stereo not shown) [Compound 3, [Pt(bzac)(NH3)2](NO3)] | 7 ± 2 µM | no changes; also recorded: no sign of decomposition | 33 ± 6 µM | no changes; also recorded: no sign of decomposition | 0.35 ± 0.24 pmol/µg | 24 ± 4 µM | 83 ± 8 ng Pt/10^6 cells | 8 ± 2 µM | – | – | ≈ 0.3 pmol Pt/μg DNA | – | only sparingly soluble in water | – | – | – | –
4 | O=[N+]([O-])[O-].[NH3+][Pt-2]1([NH3+])[O]C(C(F)(F)F)=CC(c2ccccc2)=[O+]1 (stereo not shown) [Compound 4, [Pt(tfbz)(NH3)2](NO3)] | 1.3 ± 0.2 µM | – | 4.3 ± 0.3 µM | – | 14 ± 3 pmol/µg | 3 ± 1 µM | 160 ± 20 ng Pt/10^6 cells | 1.6 ± 0.5 µM | 1.8 days | 29 days | – | – | only sparingly soluble in water | 64.52% | 2.6 µM | 89.65% | –
5 | O=[N+]([O-])[O-].[NH3+][Pt-2]1([NH3+])[O]C(c2ccccc2)=CC(c2ccccc2)=[O+]1 (stereo not shown) [Compound 5, [Pt(dbm)(NH3)2](NO3)] | 1.3 ± 0.3 µM | no changes; also recorded: no sign of decomposition | 3.1 ± 0.5 µM | no changes; also recorded: no sign of decomposition | 23 ± 10 pmol/µg | 6.7 ± 0.7 µM | 520±80 ng Pt/10^6 cells | 2.7 ± 0.7 µM | – | – | – | – | – | – | – | – | –
6 | N.N.O=C([O-])C1(C(=O)[O-])CCC1.[Pt+2] [carboplatin] | – | – | – | – | – | – | – | – | – | – | – | – | – | – | – | – | no decomposition
7 | N.N.[Cl][Pt][Cl] [cisplatin, cis-diamminedichloroplatinum(II), reference compound] | 3.2 ± 0.6 µM | – | 14 ± 3 µM | – | 1.58 ± 0.97 pmol/µg | 2.1 ± 0.1 µM | 14 ± 2 ng Pt/10^6 cells | 5 ± 2 µM | – | – | – | – | – | – | – | – | –
